# Key:
# Type in all cases: biochemical
# Human MMP14 = target: T1, Human MMP14 (Homo sapiens, UniProt P50281); experiment: MMP14 inhibition experiment; details: concentration required for 50% inhibition of enzyme activity; read-out: IC50 value MMP-14
# T1 construct: purchased Biogenesis or Calbiochem 5980-1461 or 475935
# Method in brief: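 Fluorescence assay: substrate Dnp-Pro-Cha-Gly-Cys(Me)-His-Ala-Lys(Nma)-NH2 (20 μM before equal-volume mixing) incubated at 37° C for 5 hours with 4 ng human MMP14.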
# Human MMP8 = target: T2, Human MMP8 (Homo sapiens, UniProt P22894); experiment: MMP8 inhibition experiment; details: concentration required for 50% inhibition of enzyme activity; read-out: IC50 value MMP-8
# T2 construct: purchased Calbiochem 444229
# T2 sequence (P22894 101-467): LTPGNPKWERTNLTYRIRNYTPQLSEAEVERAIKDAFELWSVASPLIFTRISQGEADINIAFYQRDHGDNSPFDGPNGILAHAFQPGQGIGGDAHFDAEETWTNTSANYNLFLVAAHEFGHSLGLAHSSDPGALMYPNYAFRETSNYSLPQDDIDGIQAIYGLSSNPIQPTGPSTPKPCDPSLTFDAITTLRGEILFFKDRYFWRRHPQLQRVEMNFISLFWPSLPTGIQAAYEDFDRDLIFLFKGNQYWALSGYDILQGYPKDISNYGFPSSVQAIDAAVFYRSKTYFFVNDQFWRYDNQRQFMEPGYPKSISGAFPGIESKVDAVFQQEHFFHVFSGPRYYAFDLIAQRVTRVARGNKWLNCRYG
# Method in brief: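 Human MMP8 activated with APMA for 1 h at 37° C, then incubated with fluorogenic peptide MOCAc-Pro-Leu-Gly-Leu-A2pr(Dnp)-Ala-Arg-NH2 (20 μM stock) for 5 hours at 37° C. Fluorescent substrate cleavage serves as read-out.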
# TACE = target: T3, TACE (Homo sapiens, UniProt P78536); experiment: TACE inhibition experiment (in vitro)
# T3 construct: made in house; host or cells: mammalian cells or insect cells
# T3 sequence (P78536 215-824): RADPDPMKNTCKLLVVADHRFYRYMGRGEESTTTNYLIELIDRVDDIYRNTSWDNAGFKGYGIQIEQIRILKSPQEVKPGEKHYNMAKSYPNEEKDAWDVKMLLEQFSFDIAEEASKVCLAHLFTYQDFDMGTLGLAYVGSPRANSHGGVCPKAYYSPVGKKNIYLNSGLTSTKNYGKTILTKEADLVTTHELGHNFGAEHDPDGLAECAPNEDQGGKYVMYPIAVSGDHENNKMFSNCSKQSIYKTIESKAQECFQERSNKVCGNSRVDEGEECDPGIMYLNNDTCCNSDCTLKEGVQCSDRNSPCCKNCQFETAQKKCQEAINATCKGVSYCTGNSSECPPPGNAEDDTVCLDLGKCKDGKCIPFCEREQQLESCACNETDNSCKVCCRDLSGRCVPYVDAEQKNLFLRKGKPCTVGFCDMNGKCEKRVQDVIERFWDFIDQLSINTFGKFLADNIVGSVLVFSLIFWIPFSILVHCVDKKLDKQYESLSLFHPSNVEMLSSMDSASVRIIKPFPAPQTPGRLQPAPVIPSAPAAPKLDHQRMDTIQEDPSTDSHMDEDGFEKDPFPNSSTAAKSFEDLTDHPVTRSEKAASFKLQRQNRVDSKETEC
# Procedure: TACE inhibition experiments were conducted using TACE obtained as above as an enzyme and by measuring TACE activity in the presence or absence of a test substance using Nma (N-metylanthranilic acid)-[sequence]Dnp(dinitrophenyl)-D-Arg-NH2 being a fluorescent synthetic substrate which contains the sequence of cleavage site of membrane-bound TNF by TACE, as a substrate.
# More specifically, 14 units of an enzyme solution (1 unit is defined as the amount of enzyme which degrades 1 pmol of the substrate per minute at 25° C.) which was prepared in 90 μL of assay buffer A (50 mM Tris-HCl buffer (pH 7.5) containing 200 mM sodium chloride, 5 mM calcium chloride, 10 μM zinc sulfate, 0.004% sodium azide and 2 mg/mL bovine serum albumin) and 90 μL of 20 μM fluorescent synthetic substrate prepared in assay buffer B (50 mM Tris-HCl buffer (pH 7.5) containing 200 mM sodium chloride, 5 mM calcium chloride, 10 μM zinc sulfate, 0.004% sodium azide and 0.05% PLURONIC F-68) are mixed and reacted for 2 hours at 37° C.
# Human MMP17 = target: T4, Human MMP17 (Homo sapiens, UniProt Q9ULZ9); experiment: MMP17 inhibition test; details: concentration required for 50% inhibition of enzyme activity; read-out: IC50 value MMP-17
# T4 construct: purchased Calbiochem 475940
# T4 sequence (Q9ULZ9 126-300 limits assumed): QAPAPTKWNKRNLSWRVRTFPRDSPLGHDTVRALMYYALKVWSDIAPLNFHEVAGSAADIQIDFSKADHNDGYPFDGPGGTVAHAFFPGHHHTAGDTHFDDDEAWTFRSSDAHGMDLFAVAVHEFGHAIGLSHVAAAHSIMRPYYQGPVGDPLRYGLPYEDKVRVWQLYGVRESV
# Human MMP2 = target: T5, Human MMP2 (Homo sapiens, UniProt P08253); experiment: MMP2 inhibition experiment; details: concentration required for 50% inhibition of enzyme activity; read-out: IC50 value MMP-2
# T5 construct: purchased Calbiochem 444213
# T5 sequence (P08253 110-660): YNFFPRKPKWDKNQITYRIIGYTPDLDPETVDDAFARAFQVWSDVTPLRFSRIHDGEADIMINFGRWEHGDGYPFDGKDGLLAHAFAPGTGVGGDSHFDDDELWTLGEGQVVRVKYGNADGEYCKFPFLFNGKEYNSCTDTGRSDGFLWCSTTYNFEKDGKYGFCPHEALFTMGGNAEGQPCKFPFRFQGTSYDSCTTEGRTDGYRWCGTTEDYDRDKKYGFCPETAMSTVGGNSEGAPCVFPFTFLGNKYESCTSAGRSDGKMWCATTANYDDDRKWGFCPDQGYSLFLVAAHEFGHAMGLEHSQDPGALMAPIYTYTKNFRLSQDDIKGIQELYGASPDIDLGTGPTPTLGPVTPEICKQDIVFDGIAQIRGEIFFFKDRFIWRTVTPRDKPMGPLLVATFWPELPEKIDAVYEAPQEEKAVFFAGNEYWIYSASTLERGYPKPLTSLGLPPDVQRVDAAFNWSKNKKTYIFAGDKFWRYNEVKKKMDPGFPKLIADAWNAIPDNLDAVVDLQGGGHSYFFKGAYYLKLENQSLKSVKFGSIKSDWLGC
# Procedure: This enzyme solution in amount of 10 μL was diluted to 90 μL with the assay buffer A, which was added to 90 μL of 20 μM fluorescent substrate (MOCAc((7-methoxycoumarin-4-yl)acetyl)-Pro-Leu-Gly-Leu-A2pr(Dnp)-Ala-Arg-NH2, Peptide Institute, Inc., #3163-v) prepared in the assay buffer B, followed by reaction for 5 hours at 37° C.
# Human MMP3 = target: T6, Human MMP3 (Homo sapiens, UniProt P08254); experiment: MMP3 inhibition experiment; details: concentration required for 50% inhibition of enzyme activity; read-out: IC50 value MMP-3
# T6 construct: purchased Calbiochem 444217
# T6 sequence (P08254 100-272 limits assumed): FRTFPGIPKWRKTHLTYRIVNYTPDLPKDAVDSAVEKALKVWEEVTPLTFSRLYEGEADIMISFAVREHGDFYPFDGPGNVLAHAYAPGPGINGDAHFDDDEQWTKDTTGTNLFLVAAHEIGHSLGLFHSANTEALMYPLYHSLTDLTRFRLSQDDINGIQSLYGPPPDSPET
# Method in brief: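 Fluorescence-quenched substrate NFF-3 (MOCAc/Dnp peptide, 20 μM as prepared) cleaved by 5 ng human MMP3 over 5 hours at 37° C, with inhibition measured from substrate fluorescence.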
# Human MMP13 = target: T7, Human MMP13 (Homo sapiens, UniProt P45452); experiment: MMP13 inhibition experiment; details: concentration required for 50% inhibition of enzyme activity; read-out: IC50 value MMP-13
# T7 construct: purchased Chemicon CC068
# Procedure: Human MMP13 (Chemicon #CC068) in amount of 90 μL (200 ng) was activated by mixing with 10 μL of 10 mM APMA, followed by reaction for 1 hour at 37° C. This enzyme solution in amount of 0.6 μL was diluted to 90 μL with the assay buffer A, which was added to 90 μL of 20 μM fluorescent substrate (Dnp-Pro-Cha-Gly-Cys(Me)-His-Ala-Lys(Nma)-NH2) prepared in the assay buffer B, followed by reaction for 4 hours at 37° C.
# Human MMP1 = target: T8, Human MMP1 (Homo sapiens, UniProt P03956); experiment: MMP1 inhibition experiment; details: read-out: IC50 value MMP-1
# T8 construct: purchased Calbiochem 444208
# T8 sequence (P03956 100-469): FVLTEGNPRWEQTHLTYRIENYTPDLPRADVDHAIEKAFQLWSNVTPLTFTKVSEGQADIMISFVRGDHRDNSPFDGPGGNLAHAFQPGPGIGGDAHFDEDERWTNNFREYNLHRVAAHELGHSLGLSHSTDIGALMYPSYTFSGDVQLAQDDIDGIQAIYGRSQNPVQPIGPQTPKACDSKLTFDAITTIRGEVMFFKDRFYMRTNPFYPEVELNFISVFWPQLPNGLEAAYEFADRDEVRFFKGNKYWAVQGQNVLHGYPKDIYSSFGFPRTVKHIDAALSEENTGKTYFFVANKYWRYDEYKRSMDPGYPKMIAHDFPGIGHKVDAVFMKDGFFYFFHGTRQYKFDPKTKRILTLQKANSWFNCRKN
# Procedure: (§1) The methods of inhibition experiments carried out for various MMPs are described below.
# This enzyme solution in amount of 10 μL was diluted to 90 μL with the assay buffer A, which was added to 90 μL of 20 μM fluorescent substrate (Dnp-Pro-Cha(β-cyclohexylalanyl)-Gly-Cys(Me)-His-Ala-Lys(Nma)-NH2) prepared in the assay buffer B, followed by reaction for 5 hours at 37° C.
# Human MMP9 = target: T9, Human MMP9 (Homo sapiens, UniProt P14780); experiment: MMP9 inhibition experiment; details: read-out: IC50 value MMP-9
# T9 construct: purchased Calbiochem 444231
# T9 sequence (P14780 107-707 limits assumed): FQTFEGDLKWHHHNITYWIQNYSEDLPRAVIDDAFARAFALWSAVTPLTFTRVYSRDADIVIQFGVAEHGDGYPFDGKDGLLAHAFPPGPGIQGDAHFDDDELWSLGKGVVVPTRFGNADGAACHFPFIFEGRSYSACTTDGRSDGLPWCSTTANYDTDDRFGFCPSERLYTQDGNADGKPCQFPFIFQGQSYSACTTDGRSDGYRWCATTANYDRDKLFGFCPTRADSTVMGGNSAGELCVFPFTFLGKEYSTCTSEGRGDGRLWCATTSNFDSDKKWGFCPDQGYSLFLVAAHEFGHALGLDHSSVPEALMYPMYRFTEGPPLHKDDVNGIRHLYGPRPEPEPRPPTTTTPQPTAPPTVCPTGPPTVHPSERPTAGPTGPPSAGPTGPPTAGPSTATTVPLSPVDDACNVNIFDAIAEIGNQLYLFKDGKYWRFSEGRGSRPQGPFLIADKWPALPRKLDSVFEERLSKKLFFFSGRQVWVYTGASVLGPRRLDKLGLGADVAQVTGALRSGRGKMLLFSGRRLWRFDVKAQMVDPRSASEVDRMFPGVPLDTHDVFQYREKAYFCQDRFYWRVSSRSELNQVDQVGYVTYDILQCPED
# Procedure: as §1
# This enzyme solution in amount of 1 μL was diluted to 90 μL with the assay buffer A, which was added to 90 μL of 20 μM fluorescent substrate (Dnp-Pro-Cha-Gly-Cys(Me)-His-Ala-Lys(Nma)-NH2) prepared in the assay buffer B, followed by reaction for 4 hours at 37° C.
Structure (SMILES),IC50 (Human MMP14),IC50 (Human MMP8),IC50 (TACE),IC50 (Human MMP17),IC50 (Human MMP2),IC50 (Human MMP3),IC50 (Human MMP13),IC50 (Human MMP1),IC50 (Human MMP9)
"Cc1cc(COc2ccc(S(=O)(=O)CC(c3ccccc3C)N(O)C=O)cc2)c2cc(F)ccc2n1 (stereo not drawn) [Example I-79, N-{2-[4-(6-fluoro-2-methylquinolin-4-ylmethoxy)benzenesulfonyl]-1-o-tolylethyl}-N-hydroxyformamide]",46 µM,73 µM,0.015 µM,6.2 µM,58 µM,2.9 µM,20 µM,68 µM,70 µM
Cc1cc(COc2ccc(S(=O)(=O)CC(C3CSC(=O)N3C)N(O)C=O)cc2)c2ccccc2n1 (stereo not drawn) [Example I-58],> 100 µM,11 µM,0.0031 µM,0.58 µM,21 µM,1.9 µM,27 µM,> 100 µM,> 100 µM
CCC(CC)C(=O)N1CCC(=CC(CS(=O)(=O)c2ccc(OCc3cc(C)nc4ccccc34)cc2)N(O)C=O)CC1 (stereo not drawn) [Example I-42],38 µM,61 µM,0.0029 µM,2.3 µM,18 µM,2.2 µM,20 µM,70 µM,52 µM
"Cc1cc(COc2ccc(S(=O)(=O)CC(N(O)C=O)C3(C)CCOCC3)cc2)c2ccccc2n1 (stereo not drawn) [Example I-60, N-hydroxy-N-{2-[4-(2-methylquinolin-4-ylmethoxy)benzenesulfonyl]-1-(4-methyltetrahydropyran-4-yl)ethyl}formamide]",> 100 µM,10 µM,0.0083 µM,0.51 µM,60 µM,2.5 µM,56 µM,> 100 µM,> 100 µM
Cc1cncc(C(CS(=O)(=O)c2ccc(OCc3cc(C)nc4ccc(F)cc34)cc2)N(O)C=O)c1 (stereo not drawn) [Example I-80],> 100 µM,27 µM,0.0045 µM,7 µM,18 µM,4 µM,23 µM,> 100 µM,> 100 µM
Cc1cncc(C(CS(=O)(=O)c2ccc(OCc3cc(C)nc4ccccc34)cc2)N(O)C=O)c1 (stereo not drawn) [Example I-31],90 µM,62 µM,0.0028 µM,1.8 µM,50 µM,3.2 µM,26 µM,> 100 µM,> 100 µM
Cc1cc(COc2ccc(S(=O)(=O)CC(C3CCN(C(=O)OC(C)(C)C)CC3)N(O)C=O)cc2)c2ccccc2n1 (stereo not drawn) [Example I-68],40 µM,8 µM,0.023 µM,0.22 µM,1.5 µM,0.5 µM,0.53 µM,80 µM,50 µM
"Cc1cc(COc2ccc(S(=O)(=O)CC(c3ccccc3C)N(O)C=O)cc2)c2cccc(F)c2n1 (stereo not drawn) [Example I-124, N-{2-[4-(8-fluoro-2-methylquinolin-4-ylmethoxy)benzenesulfonyl]-1-o-tolylethyl}-N-hydroxyformamide]",7 µM,1.9 µM,0.006 µM,4.8 µM,1.9 µM,4.8 µM,5.8 µM,34 µM,24 µM
Cc1cc(COc2ccc(S(=O)(=O)CC(CC3CCN(C(=O)c4ccccc4)CC3)N(O)C=O)cc2)c2ccccc2n1 (stereo not drawn) [Example I-50],30 µM,5.8 µM,0.013 µM,0.2 µM,1.4 µM,0.2 µM,3 µM,60 µM,31 µM
CCC(CC)C(=O)N1CCC(CC(CS(=O)(=O)c2ccc(OCc3cc(C)nc4ccccc34)cc2)N(O)C=O)C(C)C1 (stereo not drawn) [Example I-64],65 µM,17 µM,0.0051 µM,0.58 µM,9 µM,0.7 µM,17 µM,57 µM,58 µM
COc1ccc(CN2C(=O)SCC2C(CS(=O)(=O)c2ccc(OCc3cc(C)nc4ccccc34)cc2)N(O)C=O)cc1 (stereo not drawn) [Example I-59],60 µM,58 µM,0.01 µM,2.6 µM,80 µM,5.6 µM,35 µM,54 µM,> 100 µM
COc1ccc(CCC(CS(=O)(=O)c2ccc(OCc3cc(C)nc4ccccc34)cc2)N(O)C=O)cc1 (stereo not drawn) [Example I-35],38 µM,35 µM,0.032 µM,6 µM,4.2 µM,10 µM,7.8 µM,50 µM,37 µM
Cc1cncc(C(CS(=O)(=O)c2ccc(OCc3cc(C)nc4ccc(C)cc34)cc2)N(O)C=O)c1 (stereo not drawn) [Example I-78],55 µM,52 µM,0.0031 µM,3.9 µM,36 µM,2.8 µM,16 µM,> 100 µM,> 100 µM
Cc1cc(COc2ccc(S(=O)(=O)CC(c3cccnc3C)N(O)C=O)cc2)c2ccccc2n1 (stereo not drawn) [Example I-67],70 µM,18 µM,0.003 µM,1.4 µM,20 µM,2.7 µM,30 µM,> 100 µM,> 100 µM
COCc1cc(COc2ccc(S(=O)(=O)CC(C=C3CCC4(CC3)OCCO4)N(O)C=O)cc2)cc(C)n1 (stereo not drawn) [Example I-118],> 100 µM,32 µM,0.23 µM,40 µM,20 µM,30 µM,31 µM,> 100 µM,> 100 µM
Cc1cc(COc2ccc(S(=O)(=O)CC(N(O)C=O)C3(C)CCC(=O)CC3)cc2)c2ccccc2n1 (stereo not drawn) [Example I-48],> 100 µM,18 µM,0.019 µM,1 µM,70 µM,2.8 µM,50 µM,> 100 µM,> 100 µM
O=CON=C1CCC(=CC(CS(=O)(=O)c2ccc(OCc3ccc4ccccc4n3)cc2)N(O)C=O)CC1 (stereo not drawn) [Example I-85],60 µM,70 µM,0.36 µM,31 µM,4.5 µM,50 µM,22 µM,> 100 µM,56 µM
"Cc1ccc2nc(C)cc(COc3ccc(S(=O)(=O)CC(C=C4CCOCC4)N(O)C=O)cc3)c2c1 (stereo not drawn) [Example I-74, N-{2-[4-(2.6-dimethylquinolin-4-ylmethoxy)benzenesulfonyl]-1-(tetrahydropyran-4-ylidenemethyl)ethyl}-N-hydroxyformamide]",60 µM,65 µM,0.005 µM,10 µM,41 µM,6 µM,20 µM,70 µM,50 µM
